From PubChem BioAssay (NCI)
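Five compound concentrations were applied to cells in 96-well plates for 48 hours; endpoints were derived by simple linear interpolation of the resulting dose-response curve. The concentration for 50% growth inhibition is given as GI50. Definition used: TGI = concentration required for complete inhibition of growth.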

Tests used:
Test in all cases: growth of human tumour cells (NCI), 48 h
DMS 114 small cell lung = test system: DMS 114 small cell lung
LXFL 529 NSCLC = test system: LXFL 529 NSCLC
NCI-H23 lung = test system: NCI-H23 lung
SNB-19 CNS = test system: SNB-19 CNS
SNB-75 CNS = test system: SNB-75 CNS
NCI-H522 lung = test system: NCI-H522 lung
A498 renal = test system: A498 renal
DU-145 prostate = test system: DU-145 prostate
HS 578T breast = test system: HS 578T breast
T-47D breast = test system: T-47D breast

SMILES | TGI (DMS 114 small cell lung) | TGI (LXFL 529 NSCLC) | TGI (NCI-H23 lung) | TGI (SNB-19 CNS) | TGI (SNB-75 CNS) | TGI (NCI-H522 lung) | TGI (A498 renal) | GI50 (DU-145 prostate) | TGI (DU-145 prostate) | GI50 (NCI-H23 lung) | GI50 (SNB-19 CNS) | GI50 (SNB-75 CNS) | GI50 (HS 578T breast) | TGI (HS 578T breast) | GI50 (NCI-H522 lung) | GI50 (T-47D breast) | TGI (T-47D breast) | GI50 (A498 renal) | GI50 (DMS 114 small cell lung) | GI50 (LXFL 529 NSCLC)
Cc1c(Cl)cccc1NC(=O)c1cccc([N+](=O)[O-])c1O | 48.7 µM | > 75.1 µM | 29.4 µM | > 100 µM | 66.1 µM | 31.6 µM | 45.9 µM |  |  |  |  |  |  |  |  |  |  |  |  | 
COc1ccc(-c2nn(-c3cccc(Cl)c3)cc2-c2nc(N)[nH]c(=O)c2C#N)cc1 |  |  | 46.2 µM | > 100 µM | 21.1 µM | 9.8 µM | 6.75 µM | 17.9 µM | 70.1 µM | 5.44 µM | 4.58 µM | 2.88 µM | 3.55 µM | 40.3 µM | 3.11 µM | 6.05 µM | 32.2 µM | 1.47 µM |  | 
COc1cc(C(=O)O[C@H](C(N)=O)[C@]2(C)CO2)c2cccc(C)c2c1 |  |  |  | 5.02 µM | 4.13 µM | 0.638 µM | 15.4 µM | < 0.017 µM | 0.0928 µM | < 0.0203 µM | 1.21 µM | 0.933 µM | 0.13 µM | 15.5 µM | < 0.0342 µM | 1.11 µM | 8.1 µM | 4.31 µM |  | 
CNC(C)[C@H]1CCC2C3CC=C4C(=O)[C@@H](NC(=O)C=C(C)C)CC[C@]4(C)C3CC[C@@]21C (some centres not stated) |  |  | 12.2 µM | 17.4 µM | 10.4 µM | 7.55 µM | 8.26 µM | 4.53 µM | 16.9 µM | 2.37 µM | 5.26 µM | 2.26 µM | 1.87 µM | 6.82 µM | 2.27 µM | 0.925 µM | 5.05 µM | 1.3 µM |  | 
NCCCOc1cc(Cl)ccc1NC(=O)c1cc2ccccc2cc1OCCCN |  |  | 3.03 µM | 3.21 µM | 2.5 µM | 2.34 µM | 3.08 µM | 1.58 µM | 2.95 µM | 1.51 µM | 1.62 µM | 1.23 µM | 1.59 µM | 3.57 µM | 0.575 µM | 1.51 µM | 3.2 µM | 1.58 µM |  | 
COc1cc(-c2nnc3n2NC=C(C(=O)O)S3)cc(OC)c1OC | > 70 µM | > 100 µM | > 100 µM | > 100 µM | > 100 µM | > 100 µM | > 100 µM |  |  |  |  |  |  |  |  |  |  |  |  | 
C=C(C)[C@@H]1CC[C@]2(C)[C@H](CC[C@@H]3[C@@H]([C@@](C)(O)CCC=C(C)C)CC[C@]32C)[C@@]1(C)CCC(=O)O |  |  | 35.6 µM | 34.9 µM | 34.8 µM | 63.5 µM | > 100 µM | 16.7 µM | 32.4 µM | 18.1 µM | 18.8 µM | 15.3 µM | 24 µM | 86.9 µM | 20.3 µM | 21.5 µM | > 100 µM | 29.5 µM |  | 
C[P+](C)(C)c1ccccc1 | > 100 µM | > 100 µM | > 100 µM | > 100 µM | > 100 µM |  |  |  |  |  |  |  |  |  |  |  |  |  |  | 
Cc1ccc2occ/c(=N\Nc3ccccc3)c2c1 |  |  | > 100 µM | > 100 µM | 63.2 µM | > 100 µM | > 100 µM |  | > 100 µM |  |  |  |  | > 100 µM |  |  | 30.5 µM |  |  | 
COc1cc2c(cc1OC)C1Cc3cc(OC)c(OC)cc3N1CC2 (configuration not stated) | 37.5 µM | 61.1 µM | > 100 µM | > 100 µM | 56.2 µM | 35 µM | > 100 µM |  |  |  |  |  |  |  |  |  |  |  |  | 
C1COCCSC2=C(SCCO1)SC(=C1SC3=C(SCCOCCOCCS3)S1)S2 | > 100 µM | > 100 µM | > 100 µM | > 100 µM | 51.4 µM | > 100 µM | > 100 µM |  |  |  |  |  |  |  |  |  |  |  |  | 
CCC[CH2][Sn]1([CH2]CCC)[O]CC(COc2c(Cl)cc(Cl)cc2Cl)[O]1 (configuration not stated) | 1.58 µM | 1.58 µM | 2.69 µM | 2.64 µM | 3.77 µM |  | 2.65 µM |  |  | 1.11 µM | 1.35 µM | 1.17 µM |  |  |  |  |  | 1.31 µM | 0.403 µM | 0.375 µM
O=C(NNc1cnccn1)c1nc2cc(F)ccc2n2cccc12 |  |  | > 100 µM | > 100 µM | > 30.4 µM | 0.963 µM | 2.67 µM | 0.745 µM | > 100 µM | 0.765 µM | 0.7 µM | 1.31 µM | 2.83 µM | > 100 µM | 0.281 µM | 0.385 µM | > 100 µM | 0.575 µM |  | 
CCOC(=O)C1=C(N)Oc2c(sc3c(C)cccc23)C1c1ccc(F)cc1 (configuration not stated) |  |  | 14.3 µM | 16.3 µM | 11.7 µM | 3.29 µM | 1.26 µM | 0.849 µM | 13.5 µM | 0.808 µM | 0.621 µM | 0.265 µM | 0.472 µM | 7.17 µM | 0.35 µM | 2.61 µM | 26.4 µM | 0.211 µM |  | 
CCOC(=O)c1sc(NC(=O)COc2cccc(/C=C3\CCc4cc(OC)ccc4C3=O)c2)nc1C |  |  | > 100 µM | > 100 µM | > 100 µM | > 100 µM | 76.6 µM | 1.86 µM | 3.81 µM | 15.8 µM | 2.78 µM | 2.51 µM | 3.94 µM | 49.7 µM | 3.6 µM | 3.75 µM | > 100 µM | 16.3 µM |  | 
COc1ccc(/C=C/c2cnccn2)cc1OC |  |  | > 10 µM | > 10 µM | > 10 µM | > 10 µM | > 10 µM |  | > 10 µM |  |  |  |  | > 10 µM |  |  | > 10 µM |  |  | 
NC(CCc1ncc(C(=O)O)s1)C(=O)O (configuration not stated) | > 100 µM | > 100 µM | > 100 µM |  | > 100 µM | > 100 µM | > 100 µM |  |  |  |  |  |  |  |  |  |  |  |  | 
CC(Cl)CN1c2ccccc2Sc2ccc(Cl)cc21 (configuration not stated) |  |  | > 10 µM | > 10 µM | > 10 µM | > 10 µM | > 10 µM |  | > 10 µM |  |  |  |  | > 10 µM |  |  | > 10 µM |  |  | 
